# Marks after values point to notes of the source that are not given here.
# Experiments:
# remnant kidney (RK) rats = test: Body weight, food and water intake in remnant kidney rats; assay type: in vivo, Male Wistar rats; details: for BW / BW Gain (from baseline): End of Week 4
# Protocol: Male Wistar rats (295-340 g) were used to produce rats with remnant kidney (RK) as follows. […] Rats were then assigned to one of four treatment groups: Group 1, RK control rats (n=7); Group 2, RK+febuxostat (Fx) rats (n=8); Group 3, RK+oxonic acid (OA) rats (n=6); and Group 4, RK+OA+Fx (n=10). Oxonic acid (OA) (Sigma-Aldrich, St Louis Mo., USA), administered at 750 mg/kg body weight daily by oral gavage, was given starting the day after the ⅚ nephrectomy. Beginning immediately following the surgery, febuxostat was administered in drinking water at 30 mg/L (3-4 mg/kg/day), whereas the respective controls received only drinking water (with 3.5 mg/L of NaCl added to keep an equivalent salt concentration to the Fx-containing water). All groups were treated for four weeks. Body weight (beginning just before surgery) and food and water intakes were measured daily. Systolic blood pressure, measured in conscious rats by a tail cuff sphygmomanometer, and plasma uric acid (UA) levels were measured at just before surgery (namely, at baseline) and at the end of the four weeks. Proteinuria was measured at baseline and at the end of two and four weeks. A renal micropuncture procedure along with systemic blood pressure monitoring under pentobarbital anesthesia was performed at the end of four weeks followed by morphologic evaluation of the renal preglomerular microvasculature. Food and water intake were determined daily. Systolic blood pressure (SBP) was measured by a tail-cuff sphygmomanometer using an automated system (XBP-100; Kent Scientific Co, Torrington, Conn., USA) in conscious animals. All animals were preconditioned for blood pressure measurements one week before each experiment. Plasma uric acid was quantified using a commercial kit (Diagnostic Chemicals Ltd, Charlottetown, PEI, Canada). Proteinuria was determined by turbidimetry by the method of trichloroacetic acid as described in Henry R J et al., “Turbidimetric determination of proteins with sulfosalicylic and tricholoroacetic acids”, Proc Soc Exp Biol Med 92:748-751 (1956), the contents of which are herein incorporated by reference.
# [1] = test system: hyperuricemic gout patients; test: FOCUS long-term open-label study: eGFR, serum creatinine and serum urate; assay type: in vivo, human; details: for GFR (estimated by MDRD, mean) / sCr (mean) / sUA (mean): all subjects
# Protocol: The objective of this study was to assess the long-term renal function effects, measured as estimated GFR (eGFR), in a cohort of hyperuricemic gout patients treated febuxostat. Febuxostat was administered at a dosing regimen that chronically maintained a serum urate level (sUA) of <6.0 mg/dL. Of 145 subjects completing a 28-day, double-blind, placebo-controlled trial (See, Becker M A, Schumacher H R, Jr., Wortmann R L, MacDonald P A, Palo […], et al., “Febuxostat, a novel nonpurine selective inhibitor of xanthine oxidase: a twenty-eight-day, multicenter, phase II, randomized, double-blind, placebo-controlled, dose-response clinical trial examining safety and efficacy in patients with gout.” Arthritis and rheumatism, March: 52(3):916-23 (2005)), 116 enrolled in the long-term, 5.5 year Febuxostat Open-label Clinical trial of Urate-lowering efficacy and […] (FOCUS) study. Baseline data were collected upon entry to the initial 28-day trial. Subjects initially received febuxostat 80 mg/day; between weeks 4 to 24 the dose of febuxostat could be titrated to 40 or 120 mg/day to maintain a sUA between <6.0 mg/dL but not lower than 3.0 mg/dL. Age 18 to 85 years with a history or presence of gout as defined by the American College of Rheumatology (Wallace S L, Robinson […], Yu T F, “Preliminary criteria for the classification of the acute arthritis of primary gout.” Arthritis and rheumatism. 1977 April; 20(3):895-900 (1977)). sUA level of ≧8.0 mg/dL at screening for the initial 28-day, double-blind study. […] GFR was estimated (eGFR) using the Modification of Diet in Renal Disease (MDRD) equation shown below: […] otherwise, S=0.742 if subject is female and 1 if male. The predictors, time (year), average sUA on study drug, baseline eGRF, and sUA change from baseline were evaluated for a relationship to eGFR change from baseline using a repeated measures linear model. Backwards selection (p=0.1) was used to reduce the model down to those predictors that best explained the eGRF change from baseline.
# [2] = test system: Mice of the species/strain B6C3F1; test: Histopathological examination of the kidney after 13 weeks of oral gavage dosing; assay type: in vivo; details: for Vacuolar Degeneration of Renal Proximal Tubules (number of animals): 12 animals examined, 13 weeks
# Protocol: Mice of the species/strain B6C3F1 of an initial age of 6 weeks were dosed via oral gavage with febuxostat suspended in 0.5% methyl cellulose. The daily dose administered was either 0 mg (i.e., the control group), 3 mg, 12 mg, 24 mg, or 48 mg. Histopathological examination of the kidney was carried out after 13-weeks of dosing for vacuolar degeneration of renal proximal tubules (a known naturally occurring change in rodents).
# [3] = RK + OA + Fx group (OA-induced hyperuricemia)
# [4] = RK + OA + Fx group (OA-induced hyperuricemia), Week 1
# [5] = RK + OA + Fx group (OA-induced hyperuricemia), Week 2
# [6] = RK + OA + Fx group (OA-induced hyperuricemia), Week 3
# [7] = RK + OA + Fx group (OA-induced hyperuricemia), Week 4
# [8] = RK rats (RK + Fx or RK + OA group)
# [9] = RK rats (RK + Fx or RK + OA group), Week 1
# [10] = RK rats (RK + Fx or RK + OA group), Week 2
# [11] = RK rats (RK + Fx or RK + OA group), Week 3
# [12] = RK rats (RK + Fx or RK + OA group), Week 4
smiles,measurement,setting,value
"Cc1nc(-c2ccc(OCC(C)C)c(C#N)c2)sc1C(=O)O [febuxostat, 2-[3-cyano-4-(2-methylpropoxy)phenyl]-4-methylthiazole-5-carboxylic acid]",BW,remnant kidney (RK) rats; [3],316.7 ± 12.3 g
same,BW Gain (from baseline),remnant kidney (RK) rats; [3],-3.0 ± 11.5 g
same,Daily Food Intake,remnant kidney (RK) rats; [4],8.7 ± 1.7 g
same,Daily Water Intake,remnant kidney (RK) rats; [4],30.2 ± 2.8 mL
same,Daily Food Intake,remnant kidney (RK) rats; [5],16.0 ± 0.7 g
same,Daily Water Intake,remnant kidney (RK) rats; [5],40.6 ± 2.6 mL
same,Daily Food Intake,remnant kidney (RK) rats; [6],18.4 ± 0.5 g
same,Daily Water Intake,remnant kidney (RK) rats; [6],38.6 ± 1.0 mL
same,Daily Food Intake,remnant kidney (RK) rats; [7],18.6 ± 0.5 g
same,Daily Water Intake,remnant kidney (RK) rats; [7],40.5 ± 1.6 mL
same,BW,remnant kidney (RK) rats; [8],340.6 ± 10.8 g
same,BW Gain (from baseline),remnant kidney (RK) rats; [8],18.4 ± 8.2 g
same,Daily Food Intake,remnant kidney (RK) rats; [9],8.6 ± 1.5 g
same,Daily Water Intake,remnant kidney (RK) rats; [9],31.5 ± 1.4 mL
same,Daily Food Intake,remnant kidney (RK) rats; [10],15.4 ± 0.5 g
same,Daily Water Intake,remnant kidney (RK) rats; [10],32.6 ± 1.2 mL
same,Daily Food Intake,remnant kidney (RK) rats; [11],20.2 ± 0.5 g
same,Daily Water Intake,remnant kidney (RK) rats; [11],37.2 ± 2.5 mL
same,Daily Food Intake,remnant kidney (RK) rats; [12],22.4 ± 1.3 g
same,Daily Water Intake,remnant kidney (RK) rats; [12],39.4 ± 1.6 mL
same,Water intake in RK rats during febuxostat treatment (in words),"remnant kidney (RK) rats; RK rats, normal daily water intake 35-40 mL",reduced to near normal levels
same,Body weight or body weight gain between the four treatment groups (in words),remnant kidney (RK) rats; end of the study,no significant differences in body weight or body weight gain
same,Measures of renal function (GFR estimated by MDRD and sCr) (in words),[1]; 5-year study period,stable over the 5-year study period
same,Baseline eGFR in a subsequent febuxostat study vs FOCUS baseline (in words),[1]; 18 subjects who completed FOCUS and enrolled in another febuxostat study,all but 1 of these subjects had a baseline eGRF in the new study that was higher
same,"GFR (estimated by MDRD, mean)",[1]; Year 1 (n = 115),65.7 mL/min
same,sCr (mean),[1]; Year 1 (n = 115),1.2 mg/dL
same,sUA (mean),"[1]; Year 1 (n = 115), excludes initial 28-day trial",5.1 mg/dL
same,"GFR (estimated by MDRD, mean)",[1]; Year 2 (n = 84),66.0 mL/min
same,sCr (mean),[1]; Year 2 (n = 84),1.2 mg/dL
same,sUA (mean),[1]; Year 2 (n = 84),5.1^b mg/dL
same,"GFR (estimated by MDRD, mean)",[1]; Year 3 (n = 71),63.2 mL/min
same,sCr (mean),[1]; Year 3 (n = 71),1.3 mg/dL
same,sUA (mean),[1]; Year 3 (n = 71),5.0 mg/dL
same,"GFR (estimated by MDRD, mean)",[1]; Year 4 (n = 67),64.2 mL/min
same,sCr (mean),[1]; Year 4 (n = 67),1.3 mg/dL
same,sUA (mean),[1]; Year 4 (n = 67),4.7^b mg/dL
same,"GFR (estimated by MDRD, mean)",[1]; Year 5 (n = 60),65.0 mL/min
same,sCr (mean),[1]; Year 5 (n = 60),1.3 mg/dL
same,sUA (mean),[1]; Year 5 (n = 60),4.8 mg/dL
same,mean serum urate (sUA),"[1]; baseline GFR <60, Year 1",5.1 mg/dL
same,mean serum urate (sUA),"[1]; baseline GFR <60, Year 2",4.8 mg/dL
same,mean serum urate (sUA),"[1]; baseline GFR <60, Year 3",4.8 mg/dL
same,mean serum urate (sUA),"[1]; baseline GFR <60, Year 4",4.5 mg/dL
same,mean serum urate (sUA),"[1]; baseline GFR <60, Year 5",4.6 mg/dL
same,mean serum urate (sUA),"[1]; baseline GFR ≧60, Year 1",5.2 mg/dL
same,mean serum urate (sUA),"[1]; baseline GFR ≧60, Year 2",5.1 mg/dL
same,mean serum urate (sUA),"[1]; baseline GFR ≧60, Year 3",5.1 mg/dL
same,mean serum urate (sUA),"[1]; baseline GFR ≧60, Year 4",4.7 mg/dL
same,mean serum urate (sUA),"[1]; baseline GFR ≧60, Year 5",4.9 mg/dL
same,eGFR benefit (in words),[1]; limited data obtained during Year 6,even greater evidence of eGFR benefit
same,Predicted eGFR improvement for each 1.0 mg/dL reduction in sUA,"[1]; modeling, repeated measures linear model",1.0 mL/min
same,Relationship of sUA reduction from baseline to eGFR (in words),[1]; p=0.02,correlated with greater improvements in eGFR over time
same,Maintenance of sUA,"[1]; throughout the study, regardless of baseline eGFR",< 6.0 mg/dL
same,Vacuolar Degeneration of Renal Proximal Tubules (number of animals),"[2]; Daily Dose 3, Female",1
same,Vacuolar Degeneration of Renal Proximal Tubules (number of animals),"[2]; Daily Dose 3, Male",7*
same,Vacuolar Degeneration of Renal Proximal Tubules (number of animals),"[2]; Daily Dose 12, Female",1
same,Vacuolar Degeneration of Renal Proximal Tubules (number of animals),"[2]; Daily Dose 12, Male",5**
same,Vacuolar Degeneration of Renal Proximal Tubules (number of animals),"[2]; Daily Dose 24, Female",0
same,Vacuolar Degeneration of Renal Proximal Tubules (number of animals),"[2]; Daily Dose 24, Male",2**
same,Vacuolar Degeneration of Renal Proximal Tubules (number of animals),"[2]; Daily Dose 48, Female",2
same,Vacuolar Degeneration of Renal Proximal Tubules (number of animals),"[2]; Daily Dose 48, Male",1**
same,Vacuolar degeneration of the renal proximal tubules (in words),[2]; male animals,reduced the amount of vacuolar degeneration of the renal proximal tubules in a statistically significant fashion

# Source: patent publication US20130143886A1, “METHODS FOR PRESERVING AND/OR INCREASING RENAL FUNCTION USING XANTHINE OXIDOREDUCTASE INHIBITORS” (priority 2006, published 2013)
